Assay results as given in patent publication US6812034B2, “Fetuin-MGP-mineral complex in serum assayed to determine calcification risk” (The Regents of the University of California, priority 2000, dated 2004).

Tests used:
[1] = centrifugation of serum at 16,000 x g; assay type: in vivo, rat
Protocol: The effect of centrifugation on the serum mineral complex was investigated in serum samples obtained 6 h after administration of etidronate at doses of 8 mg/100 g and 32 mg/100 g body weight. At the lower dose, no significant amount of calcium, phosphate, or MGP was sedimented after centrifugation for 30 min at 16,000×g. At the higher dose, a well-defined translucent pellet was obtained after centrifugation for 30 min at 16,000×g. This pellet was dissolved in 1 ml of 50 mM HCl and analyzed for calcium, phosphate, and MGP.

[2] = previous study (Price et al. 1981); cited from earlier work
[3] = filtration of serum through a 300 kDa membrane; assay type: in vivo, rat
Protocol: In a typical experiment, blood was obtained from 2 control rats and from 2 rats 6 h after a dose of 8 mg etidronate/100 g, and each blood sample was immediately placed into a 2.5 ml gold top vacutainer tube (SST gel and clot activator tube, Becton Dickinson). […] The filtrate and retentate were then analyzed to determine calcium, phosphate, and volume. The typical filtrate volume recovered was 0.70 ml and the typical retentate volume recovered was 0.26 ml.

[4] = system: arotinoid-induced bone resorption; conditions: relative antiresorption potency in the rat, etidronate = 1; cited from earlier work
[5] = system: aorta calcification in rats treated with vitamin D plus warfarin; experiment: von Kossa staining for calcification in rats treated with vitamin D plus warfarin; assay type: in vivo, rat; conditions: 84 h; for Histology Score Observer #1 x ± S.D. / Histology Score Observer #2 x ± S.D.: score 0-5
Protocol: For measurement of mineral accumulation in arteries, each tissue was removed within 30 minutes of death and immediately frozen. Tissues were subsequently washed extensively with buffer and extracted with 1 ml of 10% formic acid for 24 h at room temperature, as described. Calcium levels in serum were determined colorimetrically using cresolphthalein complexone (Sigma) and phosphate levels in serum and in acid tissue extracts were determined calorimetrically as described (Zhu et al. (1994) Cardiology, 85: 370-377). Tissue sectioning and staining were carried out by Biomedical Testing Services, Inc., (San Diego, Calif.).
Male Sprague Dawley rats were fed ad libitum with rodent diet 5001 (Purina Mills Inc., St. Louis, Mo.), a diet that is 0.67% phosphorus and 0.95% calcium by weight. This diet contains 500 μg per kg of phylloquinone and has no added menadione. In all experiments, animals were killed by exsanguination while under metofane anesthetic, and selected tissues were removed immediately and fixed in 10% buffered formalin or frozen at −20° C. for later studies. All animal experiments were approved by the UCSD animal subjects committee.

[6] = 32 mg/100 gm sc, 6 h, 1 ml pooled serum prior to centrifugation
[7] = 32 mg/100 gm sc, 6 h, 16,000 x g 30 min
[8] = 8 mg/100 g sc, 6 h, 0.26 ml retentate, 300 kDa membrane
[9] = 8 mg/100 g sc, 6 h, 0.7 ml filtrate, 300 kDa membrane
[10] = 8 mg/100 g sc, 6 h, 1 ml serum prior to filtration
[11] = 8 mg/100 g, 6 h serum incubated at room temperature for 1 day

CC(O)(P(=O)(O)O)P(=O)(O)O [Etidronate, (1-hydroxyethylylidene)-bisphosphonate]
sedimentation of calcium, phosphate or MGP ([1]; 8 mg/100 g, 6 h serum, 30 minutes at 16,000 x g): unable to demonstrate the sedimentation | Calcium, Initial Serum [1, 6]: 9.64 µmol | MGP, Initial Serum [1, 6]: 16,200 ng | Phosphate, Initial Serum [1, 6]: 7.49 µmol | Calcium, Dissolved Pellet [1, 7]: 3.27 µmol | Calcium, Supernatant [1, 7]: 6.88 µmol | MGP, Dissolved Pellet [1, 7]: 14,400 ng | MGP, Supernatant [1, 7]: 800 ng | Phosphate, Dissolved Pellet [1, 7]: 1.68 µmol | Phosphate, Supernatant [1, 7]: 5.84 µmol | transient elevation in serum BGP levels [2]: 3 fold | Calcium, Retentate [3, 8]: 2.72 µmol | MGP, Retentate [3, 8]: 11,630 ng | Phosphate, Retentate [3, 8]: 1.84 µmol | Calcium, Filtrate [3, 9]: 1.18 µmol | MGP, Filtrate [3, 9]: 291 ng | Phosphate, Filtrate [3, 9]: 2.98 µmol | Calcium, Initial Serum [3, 10]: 4.30 µmol | MGP, Initial Serum [3, 10]: 14,800 ng | Phosphate, Initial Serum [3, 10]: 5.10 µmol | filtrate MGP [3, 11]: 320 ng | filtrate calcium [3, 11]: 1.21 µmol | filtrate phosphate [3, 11]: 2.79 µmol | retentate MGP [3, 11]: 12,127 ng | retentate phosphate [3, 11]: 2.02 µmol | retentate calcium ([3]; 8 mg/100 g, 6 h serum incubated at room temperature for 1 day, then 300 kDa filtration): 2.83 µmol | retentate and filtrate levels of calcium, phosphate and MGP vs serum filtered immediately ([3]; serum frozen on dry ice and thawed 5 times): comparable | Bone Resorption Relative potency [4]: 1 | Histology Score Observer #1 x ± S.D. ([5]; 0.25 mg P/kg/day sc): 3.5 ± 1.3 | Histology Score Observer #2 x ± S.D. ([5]; 0.25 mg P/kg/day sc): 4.5 ± 1.0 | Histology Score Observer #1 x ± S.D. ([5]; 1.25 mg P/kg/day sc): 1.8 ± 2.4 | Histology Score Observer #2 x ± S.D. ([5]; 1.25 mg P/kg/day sc): 2.0 ± 2.4 | Histology Score Observer #1 x ± S.D. ([5]; 6.25 mg P/kg/day sc): 0.3 ± 0.5 | Histology Score Observer #2 x ± S.D. ([5]; 6.25 mg P/kg/day sc): 0.1 ± 0.3 | extent of von Kossa staining in the abdominal aorta ([5]; 6.25 mg P/kg/day, highest dose tested): significantly reduced
